Data from US7022733B2, “Substituted 2-phenyl benzofurans as estrogenic agents” (Wyeth, priority 2001, dated 2006).
Where a name gives a salt, the structure may show the parent alone.

Experiments:
[1] = test system: metallothionein-II mRNA in Saos-2 cells; assay: Regulation of metallothionein-II mRNA in Saos-2 cells; assay type: cell-based; conditions: Homo sapiens

melting point [°C]	SMILES	fold induction at 1 µM [1]
–	Oc1ccc(-c2cc3cc(O)ccc3o2)c(-c2ccccc2)c1 [Example 103, 2-(5-Hydroxy-biphenyl-2-yl)-benzofuran-5-ol]	9
266 to 269	Oc1ccc(-c2cc3cc(O)ccc3o2)c(-c2ccc(OCCN3CCCC3)cc2)c1 (as salt: hydrochloride) [Example 108, 2-[5-Hydroxy-4′-(2-pyrrolidin-1-yl-ethoxy)-biphenyl-2-yl]-benzofuran-5-ol]	–
